Reference: ChEMBL document CHEMBL5120865, “Exploration of 6-methyl-7-(Hetero)Aryl-7-Deazapurine ribonucleosides as antileishmanial agents” (Eur J Med Chem, 2022)

How the values were obtained:
Leishmania infantum [1] = experiment: Antileishmanial activity against intracellular Leishmania infantum MHOM/MA(BE)/67 ITMAP263 amastigotes infected in Swiss mouse peritoneal macrophage assessed as inhibition of parasite growth measured after 5 days by geimsa staining based microscopic analysis; format: functional, organism-based; conditions: MHOM/MA(BE)/67 ITMAP263, Peritoneal macrophage, 120 h
[2] = Cytotoxicity against Swiss mouse peritoneal macrophages assessed as reduction in cell viability measured after 5 days by microscopic analysis; format: toxicity, cell-based, Peritoneal macrophage; conditions: time 5 day
[3] = Selectivity index, ratio of CC50 for Cytotoxicity against Swiss mouse peritoneal macrophages to EC50 for intracellular Leishmania infantum MHOM/MA(BE)/67 ITMAP263 amastigotes infected in Swiss mouse peritoneal macrophages; format: toxicity, cell-based; conditions: read-out: Ratio CC50/EC50
[4] = Cytotoxicity against human MRC5 cells assessed as reduction in cell viability incubated for 3 days by resazurin dye based fluorescence analysis; format: toxicity; conditions: time 3 day
Leishmania infantum [5] = experiment: (§1) Antileishmanial activity against sodium stibogluconate and potassium antimonyl tartrate resistant intracellular Leishmania infantum MHOM/FR/96/LEM3323-CI4 promastigotes infected in Swiss mouse peritoneal macrophages assessed as inhibition of parasite growth measured after 96 hrs by microscopic analysis; format: functional, organism-based; conditions: MHOM/FR/96/LEM3323-CI4, Peritoneal macrophage
Leishmania infantum [6] = experiment: as §1, with “stibogluconate,” for “stibogluconate and”, “tartrate and MIL” for “tartrate”, “MHOM/FR/96/LEM3323-CI4 MIL5C13” for “MHOM/FR/96/LEM3323-CI4”; format: functional, organism-based; conditions: MHOM/FR/96/LEM3323-CI4 MIL5C13, Peritoneal macrophage
Leishmania infantum [7] = experiment: as §1, with “stibogluconate,” for “stibogluconate and”, “tartrate and PMM” for “tartrate”, “MHOM/FR/96/LEM3323-CI4 PMM” for “MHOM/FR/96/LEM3323-CI4”; format: functional, organism-based; conditions: Peritoneal macrophage
Trypanosoma cruzi = experiment: Antitrypanosomal activity against nifurtimox-sensitive Tulahuen CL2 amastigotes expressing beta galactosidase infected in human MRC5 cells assessed as inhibition of parasite growth using chlorophenol red beta-D-galactopyranoside as substrate and measured after 7 days by spectrophotometric analysis; format: functional, organism-based; conditions: Tulahuen CL2, MRC5, 168 h, read-out: EC50
[8] = Metabolic stability in golden hamster liver microsomes S9 fraction assessed as CYP450-mediated metabolism by measuring parent compound remaining measured after 60 mins in presence of NADPH; format: ADME, subcellular, Mesocricetus auratus; conditions: read-out: Stability
[9] = Metabolic stability in golden hamster liver microsomes S9 fraction assessed as CYP450-mediated metabolism by measuring parent compound remaining measured after 30 mins in presence of NADPH; format: ADME, subcellular, Mesocricetus auratus; conditions: read-out: Stability
[10] = Metabolic stability in golden hamster liver microsomes S9 fraction assessed as CYP450-mediated metabolism by measuring parent compound remaining measured after 15 mins in presence of NADPH; format: ADME, subcellular, Mesocricetus auratus; conditions: read-out: Stability
[11] = Metabolic stability in mouse liver microsomes S9 fraction assessed as UGT-mediated metabolism by measuring parent compound remaining measured after 60 mins in presence of NADPH; format: ADME, subcellular; conditions: read-out: Stability
[12] = Metabolic stability in mouse liver microsomes S9 fraction assessed as UGT-mediated metabolism by measuring parent compound remaining measured after 30 mins in presence of NADPH; format: ADME, subcellular; conditions: read-out: Stability
[13] = Metabolic stability in mouse liver microsomes S9 fraction assessed as CYP450-mediated metabolism by measuring parent compound remaining measured after 60 mins in presence of NADPH; format: ADME, subcellular; conditions: read-out: Stability
[14] = Metabolic stability in mouse liver microsomes S9 fraction assessed as CYP450-mediated metabolism by measuring parent compound remaining measured after 30 mins in presence of NADPH; format: ADME, subcellular; conditions: read-out: Stability
[15] = Metabolic stability in mouse liver microsomes S9 fraction assessed as CYP450-mediated metabolism by measuring parent compound remaining measured after 15 mins in presence of NADPH; format: ADME, subcellular; conditions: read-out: Stability
[16] = Selectivity index, ratio of CC50 for cytotoxicity against human MRC5 cells to EC50 for Trypanosoma cruzi Tulahuen CL2 amastigotes expressing beta galactosidase infected in human MRC5 cells; format: toxicity, cell-based; conditions: read-out: Ratio CC50/EC50
[17] = Metabolic stability in mouse liver microsomes S9 fraction assessed as UGT-mediated metabolism by measuring parent compound remaining measured after 15 mins in presence of NADPH; format: ADME, subcellular; conditions: read-out: Stability
[18] = Metabolic stability in golden hamster liver microsomes S9 fraction assessed as UGT-mediated metabolism by measuring parent compound remaining measured after 15 mins in presence of NADPH; format: ADME, subcellular, Mesocricetus auratus; conditions: read-out: Stability
[19] = Metabolic stability in golden hamster liver microsomes S9 fraction assessed as UGT-mediated metabolism by measuring parent compound remaining measured after 30 mins in presence of NADPH; format: ADME, subcellular, Mesocricetus auratus; conditions: read-out: Stability
[20] = Metabolic stability in golden hamster liver microsomes S9 fraction assessed as UGT-mediated metabolism by measuring parent compound remaining measured after 60 mins in presence of NADPH; format: ADME, subcellular, Mesocricetus auratus; conditions: read-out: Stability
Cytochrome P450 [21] = target: T1, Cytochrome P450 (Homo sapiens, UniProt P04798+P05177+P05181+P08684+P10632+P10635+P11509+P11712+P13584+P20813+P20815+P20853+P24462+P24903+P33260+P33261+P51589+P78329+P98187+Q02928+Q08477+Q16678+Q16696+Q5TCH4+Q6VVX0+Q7Z449+Q8TAV3+Q96SQ9+Q9HB55); experiment: Metabolic stability in human liver microsomes S9 fraction assessed as CYP450-mediated metabolism by measuring parent compound remaining measured after 15 mins in presence of NADPH; format: ADME, subcellular; conditions: read-out: Stability
Cytochrome P450 [22] = target: T1, Cytochrome P450; experiment: Metabolic stability in human liver microsomes S9 fraction assessed as CYP450-mediated metabolism by measuring parent compound remaining measured after 30 mins in presence of NADPH; format: ADME, subcellular; conditions: read-out: Stability
Cytochrome P450 [23] = target: T1, Cytochrome P450; experiment: Metabolic stability in human liver microsomes S9 fraction assessed as CYP450-mediated metabolism by measuring parent compound remaining measured after 60 mins in presence of NADPH; format: ADME, subcellular; conditions: read-out: Stability
[24] = target: T2, UDP-glucuronosyltransferases (UGTs) (Homo sapiens, UniProt O60656+O75310+O75795+P06133+P0DTE4+P0DTE5+P16662+P19224+P22309+P22310+P35503+P35504+P36537+P54855+Q6UWM9+Q9BY64+Q9HAW7+Q9HAW8+Q9HAW9); experiment: Metabolic stability in human liver microsomes S9 fraction assessed as UGT-mediated metabolism by measuring parent compound remaining measured after 15 mins in presence of NADPH; format: ADME, subcellular; conditions: read-out: Stability
[25] = target: T2, UDP-glucuronosyltransferases (UGTs); experiment: Metabolic stability in human liver microsomes S9 fraction assessed as UGT-mediated metabolism by measuring parent compound remaining measured after 30 mins in presence of NADPH; format: ADME, subcellular; conditions: read-out: Stability
[26] = target: T2, UDP-glucuronosyltransferases (UGTs); experiment: Metabolic stability in human liver microsomes S9 fraction assessed as UGT-mediated metabolism by measuring parent compound remaining measured after 60 mins in presence of NADPH; format: ADME, subcellular; conditions: read-out: Stability
Leishmania infantum [27] = experiment: Antileishmanial activity against intracellular Leishmania infantum MHOM/MA(BE)/67 amastigotes infected in golden hamster assessed as reduction of amastigote burdens in bone marrow at 40 mg/kg, po SID for 5 days by geimsa staining based microscopic analysis; format: functional; design: scale not given: the % may be the effect or the level left; conditions: time 5 day
Leishmania infantum [28] = experiment: Antileishmanial activity against intracellular Leishmania infantum MHOM/MA(BE)/67 amastigotes infected in golden hamster assessed as reduction of amastigote burdens in liver at 40 mg/kg, po SID for 5 days by geimsa staining based microscopic analysis; format: functional; design: scale not given: the % may be the effect or the level left; conditions: time 5 day
Leishmania infantum [29] = experiment: Antileishmanial activity against intracellular Leishmania infantum MHOM/MA(BE)/67 amastigotes infected in golden hamster assessed as reduction of amastigote burdens in spleen at 40 mg/kg, po SID for 5 days by geimsa staining based microscopic analysis; format: functional; design: scale not given: the % may be the effect or the level left; conditions: time 5 day

## Cc1ncnc2c1c(-c1ncccc1Cl)cn2[C@@H]1O[C@H](CO)[C@@H](O)[C@H]1O
Leishmania infantum [1]
  EC50: 1.2 µM
[2]
  CC50 at 120 h: > 64 µM
[3]
  selectivity ratio: > 50
[4]
  CC50 at 72 h: > 64 µM
Leishmania infantum [5]
  EC50: 0.67 µM
Leishmania infantum [6]
  EC50: 0.73 µM
Leishmania infantum [7]
  EC50: 1.46 µM
Trypanosoma cruzi
  EC50: 0.7 µM
[8]
  remaining at 1 h: 90%
[9]
  remaining at 0.5 h: 98%
[10]
  remaining at 0.25 h: 86%
[11]
  remaining at 1 h: 98%
[12]
  remaining at 0.5 h: 91%
[13]
  remaining at 1 h: 74%
[14]
  remaining at 0.5 h: 83%
[15]
  remaining at 0.25 h: 98%
[16]
  selectivity ratio: > 91
[17]
  remaining at 0.25 h: 92%
[18]
  remaining at 0.25 h: 95%
[19]
  remaining at 0.5 h: 96%
[20]
  remaining at 1 h: 96%
Cytochrome P450 [21]
  remaining at 0.25 h: 107%
Cytochrome P450 [22]
  remaining at 0.5 h: 100%
Cytochrome P450 [23]
  remaining at 1 h: 99%
[24]
  remaining at 0.25 h: 93%
[25]
  remaining at 0.5 h: 95%
[26]
  remaining at 1 h: 101%

## CCCCCCCCCCCCCCCCOP(=O)([O-])OCC[N+](C)(C)C [MILTEFOSINE]
Leishmania infantum [1]
  EC50: 8.3 µM
Leishmania infantum [27]
  Activity: 93.1%
Leishmania infantum [28]
  Activity: 94%
Leishmania infantum [29]
  Activity: 99.2%
